Laboratory results reported in US8956997B2, “Plant conditioner composition and method” (priority 2010, dated 2015).

Legend:
plants = experiment: Plant size, produce and plant damage in indoor and outdoor gardens; type: in vivo; details: more H202 and tea tree oil combinations added to the mix
Protocol: This product was tested in the Inventor's garden. At the time the garden was infested with spider mites and thrips. There were cob webs and major plant damage. The option was to destroy the garden. It seemed hopeless. […] Originally the solution was too strong, and it severely damaged the plants and killed every living thing on the plants as well as the plants. After going back and testing each of the ingredients separately (a few weeks at a time over the course of five years) the Inventor concluded how much of each ingredient to use per gallon. After that, the Inventor combined the sugars and started adding each ingredient while testing shelf life and refrigerator life of Dragon Juice 50. […] The concentrate variations have been tested in indoor and outdoor gardens. The results have been fantastic as all of the products produced have been getting outstanding customer approval for quality, and flavor. […] It also helps to keep the plant healthier from the stress of the concentrated oils. The salt (see below) is another last minute ingredient included after studying and talking with a state health inspector. The Inventor realized that the salt breaks down selenium in the water so the plant can use the nutrients and convert the use of sugars more effectively. As the H202 takes away microorganisms, the vitamins, and carbohydrates rebuild a healthy environment for the plants new growth. […]

thrips = experiment: Thrips kill test on isolated thrips and treated plants; type: in vivo
Source text: Obvious testing by using a loop and magnifier concluded that the Dragon Juice 50 kills 100% of the spider mites, even after 6 weeks in the refrigerator. […] The Inventor tested more H202 and the tea tree oil combinations.

OO [H202, hydrogen peroxide]
plant damage (leaves) (plants): started burning the leaves
effect on thrips (thrips): killed the thrips
